The format of this data set is physicochemical. The settings on record: pH 3.

Structures are written as SMILES.

The results in this text go back to patent publication US20240016831A1 (priority 2020, published 2024).

`OC[C@@H](O)[C@@H](O)[C@H](O)[C@@H](O)CO` [sorbitol]: the “amounts of nitric oxide generated (cumulative NO evolved)” value is reported as “markedly greater amounts of nitric oxide”.
The same measure for `OC[C@@H](O)[C@@H](O)[C@H](O)[C@H](O)CO` [mannitol, D-mannitol]: “markedly greater amounts of nitric oxide”.
